Results taken from patent US10098878B2, “HIF-2α inhibitors for treating iron overload disorders” (The Board of Regents of the University of Texas System, priority 2014, dated 2018).

What follows are molecules tested against T1, HIF-2α HIS TAG-PASB Domain (Homo sapiens, UniProt Q99814) (assay: HIF-2α Scintillation Proximity Assay (SPA)). Conditions: 150 nM Compound 211 probe, 100 nM HIF-2α HIS TAG-PASB Domain; read-out: SPA IC50.
T1 construct: 100 nM HIF-2α HIS TAG-PASB Domain
Type: binding
Procedure: The total assay volume was about 100 μL in the following configuration: 2 μL compound in 100% DMSO, 88 μL buffer with protein and probe and 10 μL of SPA beads. […] The percent inhibition was determined and IC50 values were calculated using the Dotmatics system based on the following equation: % inhibition=[(high control−sample)/(high control−low control)]×100.

T1 sequence (Q99814 240-350 limits assumed): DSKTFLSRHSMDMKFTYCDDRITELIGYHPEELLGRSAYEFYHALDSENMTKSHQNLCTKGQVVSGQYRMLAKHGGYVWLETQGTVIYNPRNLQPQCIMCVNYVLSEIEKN

SMILES | IC50 [µM]
N#CN=S(=O)(CF)c1ccc(Oc2cc(F)cc(C#N)c2)c2c1[C@H](O)CC2 (single isomer, unassigned) [Compound 46] | 7.2
N#CN=S(=O)(CF)c1ccc(Oc2cc(F)cc(C#N)c2)c2c1[C@H](O)C(F)(F)C2 (single isomer, unassigned) [Compound 50] | 0.024
N#CN=S(=O)(c1ccc(Oc2cc(F)cc(C#N)c2)c2c1[C@H](O)[C@H](F)C2)C(F)F (single isomer, unassigned) [Compound 63] | 16.1
CS(=O)(=NC#N)c1ccc(Oc2cc(F)cc(C#N)c2)c2c1[C@H](O)C(F)(F)[C@H]2F (single isomer, unassigned) [Compound 82] | 2.4
CS(=O)(=NC#N)c1ccc(Oc2cc(F)cc(C#N)c2)c2c1[C@@H](O)C(F)(F)[C@@H]2F (single isomer, unassigned) [Compound 86] | 9.9
N=S1(=O)c2ccc(Oc3cc(F)cc(F)c3)c(C(F)F)c2C(O)C1(F)F (single isomer, unassigned) [Compound 163, 4-(difluoromethyl)-5-(3,5-difluorophenoxy)-2,2-difluoro-3-hydroxy-1-imino-2,3-dihydro-1H-1λ^4-benzo[b]thiophene 1-oxide] | 0.059
O=S(=O)(c1ccc(Oc2ccc3[nH]ncc3c2)c2c1C(O)C(F)(F)C2)C(F)(F)F (centres unmarked) [Compound 19, 4-((1H-Indazol-5-yl)oxy)-2,2-difluoro-7-((trifluoromethyl)sulfonyl)-2,3-dihydro-1H-inden-1-ol] | 4.9
C=C1CC(O)c2c(S(C)(=O)=O)ccc(Oc3cc(F)cc(Cl)c3)c21 (centres unmarked) [Compound 44, 4-(3-chloro-5-fluorophenoxy)-3-methylene-7-(methylsulfonyl)-2,3-dihydro-1H-inden-1-ol] | 3.39
CS(=O)(=O)c1ccc(Oc2cc(F)cc(C#N)c2)c2c1[C@H](O)CC2(F)F [Compound 52, 3-[(1R)-3,3-difluoro-1-hydroxy-7-methylsulfonyl-indan-4-yl]oxy-5-fluoro-benzonitrile] | 6.5
C[C@]1(F)Cc2c(Oc3cc(F)cc(C#N)c3)ccc(S(C)(=O)=O)c2[C@@H]1O [Compound 62, 3-fluoro-5-(((1S,2S)-2-fluoro-1-hydroxy-2-methyl-7-(methylsulfonyl)-2,3-dihydro-1H-inden-4-yl)oxy)benzonitrile] | 16.1
CS(=O)(=O)c1ccc(Oc2cncc(Br)c2)c2c1[C@H](O)[C@H](F)C2 [Compound 90, (1S,2R)-4-((5-Bromopyridin-3-yl)oxy)-2-fluoro-7-(methylsulfonyl)-2,3-dihydro-1H-inden-1-ol] | 1.28
O=S1(=O)CCc2c1ccc(Oc1cc(F)cc(Cl)c1)c2Br [Compound 114, 4-Bromo-5-(3-chloro-5-fluorophenoxy)-2,3-dihydrobenzo[b]thiophene 1,1-dioxide] | 4.4
N#Cc1c(Oc2cc(F)cc(Cl)c2)ccc2c1CCS2(=O)=O [Compound 115, 5-(3-Chloro-5-fluorophenoxy)-2,3-dihydrobenzo[b]thiophene-4-carbonitrile 1,1-dioxide] | 4.9
NC1c2c(ccc(Oc3cc(F)cc(F)c3)c2C(F)F)S(=O)(=O)C1F (centres unmarked) [Compound 130, 3-amino-4-(difluoromethyl)-5-(3,5-difluorophenoxy)-2-fluoro-2,3-dihydrobenzo[b]thiophene 1,1-dioxide] | 1.5
N#Cc1cc(F)cc(Oc2ccc3c(c2C(F)F)C(=N)C(F)S3(=O)=O)c1 (centres unmarked) [Compound 137, 3-((4-(difluoromethyl)-2-fluoro-3-imino-1,1-dioxido-2,3-dihydrobenzo[b]thiophen-5-yl)oxy)-5-fluorobenzonitrile] | 5.8
N#CN=S1(=O)CC(O)c2c1ccc(Oc1cc(F)cc(F)c1)c2C(F)F (centres unmarked) [Compound 159, N-(4-(difluoromethyl)-5-(3,5-difluorophenoxy)-3-hydroxy-1-oxido-2,3-dihydro-1λ^4-benzo[b]thiophen-1-ylidene)cyanamide] | 17.4
N=S1(=O)CC(O)c2c1ccc(Oc1cc(F)cc(F)c1)c2C(F)F (centres unmarked) [Compound 160, 4-(Difluoromethyl)-5-(3,5-difluorophenoxy)-3-hydroxy-1-imino-2,3-dihydro-1H-1λ^4-benzo[b]thiophene 1-oxide] | 14.2

Next, values leading:

IC50 [µM] | SMILES
23.9 | CS(=O)(=O)c1ccc(Oc2cncc(C#N)c2)c2c1[C@H](O)C(F)(F)[C@H]2F [Compound 107, 5-(((1S,3S)-2,2,3-trifluoro-1-hydroxy-7-(methylsulfonyl)-2,3-dihydro-1H-inden-4-yl)oxy)nicotinonitrile]
18.7 | Cc1cc(C#N)cc(Oc2ccc3c(c2C(F)F)C(=O)C(F)(F)S3(=O)=O)c1 [Compound 155, 3-((4-(Difluoromethyl)-2,2-difluoro-1,1-dioxido-3-oxo-2,3-dihydrobenzo[b]thiophen-5-yl)oxy)-5-methylbenzonitrile]
13.4 | N#Cc1cc(F)cc(Oc2ccc3c(c2C(F)F)[C@H](N)C(F)(F)S3(=O)=O)c1 [Compound 148, (S)-3-((3-Amino-4-(difluoromethyl)-2,2-difluoro-1,1-dioxido-2,3-dihydrobenzo[b]thiophen-5-yl)oxy)-5-fluorobenzonitrile]
12.4 | N#CN=S(=O)(c1ccc(Oc2cc(F)cc(C#N)c2)c2c1[C@H](O)[C@H](F)C2)C(F)F (single isomer, unassigned) [Compound 61]
9.7 | N#Cc1cc(F)cc(Oc2ccc3c(c2Br)C(=O)C(F)(F)S3(=O)=O)c1 [Compound 157, 3-((4-Bromo-2,2-difluoro-1,1-dioxido-3-oxo-2,3-dihydrobenzo[b]thiophen-5-yl)oxy)-5-fluorobenzonitrile]
8.7 | CS(=O)(=O)c1ccc(Oc2cc(F)cc(C#N)c2)c2c1[C@H](O)C(F)(F)[C@H]2O [Compound 75, 3-[(1S,3S)-2,2-difluoro-1,3-dihydroxy-7-methylsulfonyl-indan-4-yl]oxy-5-fluoro-benzonitrile]
5.6 | CS(=O)(=O)N=S(=O)(CF)c1ccc(Oc2cc(F)cc(C#N)c2)c2c1[C@H](O)C(F)(F)C2 (stereo partly drawn) [Compound 48, N—(((S)-7-(3-cyano-5-fluorophenoxy)-2,2-difluoro-3-hydroxy-2,3-dihydro-1H-inden-4-yl)(fluoromethyl)(oxo)-λ^6-sulfanylidene)methanesulfonamide]
5.3 | CS(=O)(=O)c1ccc(Oc2cncc(Br)c2)c2c1C(=O)C(F)(F)C2 [Compound 87, 4-((5-Bromopyridin-3-yl)oxy)-2,2-difluoro-7-(methylsulfonyl)-2,3-dihydro-1H-inden-1-one]
3.7 | N#Cc1cc(F)cc(Oc2ccc(S(N)(=O)=O)c3c2[C@@H](O)C(F)(F)[C@H]3O)c1 [Compound 101, (1R,3S)-7-(3-cyano-5-fluoro-phenoxy)-2,2-difluoro-1,3-dihydroxy-indane-4-sulfonamide]
2.89 | COCCNC1c2c(ccc(Oc3cc(F)cc(C#N)c3)c2C(F)F)S(=O)(=O)C1(F)F (centres unmarked) [Compound 146, 3-((4-(Difluoromethyl)-2,2-difluoro-3-((2-methoxyethyl)amino)-1,1-dioxido-2,3-dihydrobenzo[b]thiophen-5-yl)oxy)-5-fluorobenzonitrile]
2.3 | CS(=O)(=O)c1ccc(Oc2cncc(Cl)c2)c2c1[C@H](O)C(F)(F)[C@H]2F [Compound 96, (1S,3S)-4-((5-chloropyridin-3-yl)oxy)-2,2,3-trifluoro-7-(methylsulfonyl)-2,3-dihydro-1H-inden-1-ol]
2.2 | CC(C)(C)OC(=O)N[C@H]1C[C@@H](O)c2c(S(=O)(=O)C(F)(F)F)ccc(Oc3cc(F)cc(C#N)c3)c21 (relative stereo) [Compound 42, tert-butyl(cis-7-(3-cyano-5-fluorophenoxy)-3-hydroxy-4-((trifluoromethyl)sulfonyl)-2,3-dihydro-1H-inden-1-yl)carbamate]
2.2 | N#Cc1cncc(Oc2ccc(S(=O)(=O)CF)c3c2[C@H](F)C(F)(F)[C@H]3O)c1 [Compound 109, 5-(((1S,3S)-2,2,3-trifluoro-7-((fluoromethyl)sulfonyl)-1-hydroxy-2,3-dihydro-1H-inden-4-yl)oxy)nicotinonitrile]
2.1 | CS(=O)(=O)c1ccc(Oc2cncc(F)c2)c2c1[C@H](O)C(F)(F)[C@H]2F [Compound 94, (1S,3S)-2,2,3-trifluoro-4-((5-fluoropyridin-3-yl)oxy)-7-(methylsulfonyl)-2,3-dihydro-1H-inden-1-ol]
1.57 | CS(=O)(=NC#N)c1ccc(Oc2cc(F)cc(C#N)c2)c2c1[C@@H](O)C(F)(F)[C@@H]2F (single isomer, unassigned) [Compound 84]
1.4 | N#CN=S(=O)(CF)c1ccc(Oc2cc(F)cc(C#N)c2)c2c1[C@H](O)CC2 (single isomer, unassigned) [Compound 47]
1.4 | O=C1c2c(ccc(Oc3cc(F)cc(Cl)c3)c2Br)S(=O)(=O)C1(F)F [Compound 118, 4-Bromo-5-(3-chloro-5-fluorophenoxy)-2,2-difluorobenzo[b]thiophen-3(2H)-one 1,1-dioxide]
0.73 | O=S(=O)(c1ccc(Oc2cc(F)cc(Cl)c2)c2c1[C@H](O)C[C@@H]2CO)C(F)(F)F [Compound 45, (1R,3S)-4-(3-chloro-5-fluorophenoxy)-3-(hydroxymethyl)-7-((trifluoromethyl)sulfonyl)-2,3-dihydro-1H-inden-1-ol]
0.13 | N#CN=S(=O)(CF)c1ccc(Oc2cc(F)cc(C#N)c2)c2c1[C@H](O)[C@H](F)C2 (single isomer, unassigned) [Compound 41]
0.068 | C=CCN=S(=O)(c1ccc(Oc2cc(F)cc(C#N)c2)c2c1[C@H](O)C(F)(F)C2)C(F)(F)F (single isomer, unassigned) [Compound 72]

Same assay, conditions: SPA IC50, 150 nM Compound 211 probe, 100 nM HIF-2α HIS TAG-PASB Domain

IC50 [µM] | SMILES
1.88 | O=S1(=O)c2ccc(Oc3cc(F)cc(Cl)c3)cc2C(O)C1(F)F (centres unmarked) [Compound 126, 5-(3-Chloro-5-fluorophenoxy)-2,2-difluoro-3-hydroxy-2,3-dihydrobenzo[b]thiophene 1,1-dioxide]
